Assay results as given in US8481544B2, “Antibacterial compositions” (Biota Europe Limited, priority 2006, dated 2013).
≈ marks a conversion by molar mass, not a printed value.

Tested on: Enterococcus faecalis ATCC 29212
Experiment: MIC against Enterococcus faecalis ATCC 29212
Format: cell-based
Conditions: ATCC29212; Enterococcus faecalis ATCC 29212; read-out: MICs against Enterococcus faecalis, Activity
Method: Institute. Methods for Dilution Antimicrobial Susceptibility Tests for Bacteria That Grow Aerobically; Approved Standard—Seventh Edition. Document M7-A7. CLSI, Wayne, Pa., 2006; Clinical Laboratories and Standards Institute. Methods for Antimicrobial Susceptibility Testing of Anaerobic Bacteria; Approved Standard—Sixth Edition. Document M11-A6. CLSI, Wayne, Pa., 2004).
Compounds of this invention were tested for antimicrobial activity by susceptibility testing in liquid or on solid media. MICs for compounds against each strain were determined by the broth microdilution or agar dilution method according to the guidelines of the Clinical Laboratories and Standards Institute, formerly the National Committee for Clinical Laboratory Standards (Clinical Laboratories and Standards Institute. Methods for Dilution Antimicrobial Susceptibility Tests for Bacteria That Grow Aerobically; Approved Standard—Seventh Edition. Document M7-A7. CLSI, Wayne, Pa., 2006; Clinical Laboratories and Standards Institute. Methods for Antimicrobial Susceptibility Testing of Anaerobic Bacteria; Approved Standard—Sixth Edition. Document M11-A6. CLSI, Wayne, Pa., 2004).

MIC	SMILES
0.25 to 1 µg/mL (≈ 0.664 to 2.66 µM)	CCNC(=O)Nc1nc2cc(-c3cnccn3)cc(-c3cccnc3)c2s1 [Example 43, 1-Ethyl-3-(5-pyrazin-2-yl-7-pyridin-3-yl-benzothiazol-2-yl)-urea]
2 to 16 µg/mL (≈ 4.62 to 37 µM)	CCNC(=O)Nc1nc2cc(-c3cccnc3)cc(-c3ccc(CN(C)C)cn3)c2s1 [Example 132, 1-[7-(5-Dimethylaminomethyl-pyridin-2-yl)-5-pyridin-3-yl-benzothiazol-2-yl]-3-ethyl-urea]
< 0.25 µg/mL	CCNC(=O)Nc1nc2cc(-c3cccnc3)cc(-c3nccc(OC)n3)c2s1 [Example 124, 1-Ethyl-3-[7-(4-methoxy-pyrimidin-2-yl)-5-pyridin-3-yl-benzothiazol-2-yl]-urea]
0.25 to 1 µg/mL (≈ 0.637 to 2.55 µM)	CCNC(=O)Nc1nc2cc(-c3cccc(F)c3)cc(-c3cccnc3)c2s1 [Example 28, 1-Ethyl-3-[5-(3-fluoro-phenyl)-7-pyridin-3-yl-benzothiazol-2-yl]-urea]
2 to 16 µg/mL (≈ 4.22 to 33.8 µM)	CCNC(=O)Nc1nc2cc(-c3ccc(CN4CCOCC4)cc3)cc(-c3cccnc3)c2s1 [Example 21, 1-Ethyl-3-[5-(4-morpholin-4-ylmethyl-phenyl)-7-pyridin-3-yl-benzothiazol-2-yl]-urea]
< 0.25 µg/mL	CCNC(=O)Nc1nc2cc(-c3cccnc3)cc(-c3cnccn3)c2s1 [Example 101, 1-Ethyl-3-(7-pyrazin-2-yl-5-pyridin-3-yl-benzothiazol-2-yl)-urea]
< 0.25 µg/mL	CCNC(=O)Nc1nc2cc(-c3cccnc3)cc(-c3cc(C)ccn3)c2s1 [Example 176, 1-Ethyl-3-[7-(4-methyl-pyridin-2-yl)-5-pyridin-3-yl-benzothiazol-2-yl]-urea]
2 to 16 µg/mL (≈ 5.12 to 41 µM)	CCNC(=O)Nc1nc2cc(-c3cccnc3)cc(-c3ncccc3N)c2s1 [Example 94, 1-[7-(3-Amino-pyridin-2-yl)-5-pyridin-3-yl-benzothiazol-2-yl]-3-ethyl-urea]
< 0.25 µg/mL	CCNC(=O)Nc1nc2cc(-c3cnccn3)cc(-c3cnccn3)c2s1 [Example 10, 1-(5,7-Di-pyrazin-2-yl-benzothiazol-2-yl)-3-ethyl-urea]
0.25 to 1 µg/mL (≈ 0.686 to 2.74 µM)	CCNC(=O)Nc1nc2cc(-c3cccnc3)cc(-c3cc[nH]n3)c2s1 [Example 82, 1-Ethyl-3-[7-(1H-pyrazol-3-yl)-5-pyridin-3-yl-benzothiazol-2-yl]-urea]
0.25 to 1 µg/mL (≈ 0.664 to 2.66 µM)	CCNC(=O)Nc1nc2cc(-c3cncnc3)cc(-c3cccnc3)c2s1 [Example 13, 1-Ethyl-3-(7-pyridin-3-yl-5-pyrimidin-5-yl-benzothiazol-2-yl)-urea]
2 to 16 µg/mL (≈ 5.12 to 41 µM)	CCNC(=O)Nc1nc2cc(-c3cnccc3N)cc(-c3cccnc3)c2s1 [Example 44, 1-[5-(4-Amino-pyridin-3-yl)-7-pyridin-3-yl-benzothiazol-2-yl]-3-ethyl-urea]
0.25 to 1 µg/mL (≈ 0.617 to 2.47 µM)	CCNC(=O)Nc1nc2cc(-c3ccc(CO)nc3)cc(-c3cccnc3)c2s1 [Example 19, 1-Ethyl-3-[5-(6-hydroxymethyl-pyridin-3-yl)-7-pyridin-3-yl-benzothiazol-2-yl]-urea]
0.25 to 1 µg/mL (≈ 0.564 to 2.26 µM)	CCNC(=O)Nc1nc2cc(-c3cccnc3)cc(-c3ccc(C(F)(F)F)cn3)c2s1 [Example 129, 1-Ethyl-3-[5-pyridin-3-yl-7-(5-trifluoromethyl-pyridin-2-yl)-benzothiazol-2-yl]-urea]
0.25 to 1 µg/mL (≈ 0.664 to 2.66 µM)	CCNC(=O)Nc1nc2cc(-c3cccnc3)cc(-c3cncnc3)c2s1 [Example 159, 1-Ethyl-3-(5-pyridin-3-yl-7-pyrimidin-5-yl-benzothiazol-2-yl)-urea]
0.25 to 1 µg/mL (≈ 0.739 to 2.95 µM)	C=CCc1cc(-c2cccnc2)cc2nc(NC(=O)NCC)sc12 [Example 156, 1-(7-Allyl-5-pyridin-3-yl-benzothiazol-2-yl)-3-ethyl-urea]
0.25 to 1 µg/mL (≈ 0.608 to 2.43 µM)	CCNC(=O)Nc1nc2cc(-c3cccnc3)cc(-c3nc(CO)cs3)c2s1 [Example 106, 1-Ethyl-3-[7-(4-hydroxymethyl-thiazol-2-yl)-5-pyridin-3-yl-benzothiazol-2-yl]-urea]
0.25 to 1 µg/mL (≈ 0.542 to 2.17 µM)	CCNC(=O)Nc1nc2cc(-c3ccc(NCCN(C)C)nc3)cc(-c3ccccn3)c2s1 [Example 61, 1-{5-[6-(2-Dimethylamino-ethylamino)-pyridin-3-yl]-7-pyridin-2-yl-benzothiazol-2-yl}-3-ethyl-urea]
< 0.25 µg/mL	CCNC(=O)Nc1nc2cc(-c3cccnc3)cc(-c3cccc(C#N)n3)c2s1 [Example 113, 1-[7-(6-Cyano-pyridin-2-yl)-5-pyridin-3-yl-benzothiazol-2-yl]-3-ethyl-urea]
0.25 to 1 µg/mL (≈ 0.639 to 2.55 µM)	CCNC(=O)Nc1nc2cc(-c3cnc(N)nc3)cc(-c3cccnc3)c2s1 [Example 14, 1-[5-(2-Amino-pyrimidin-5-yl)-7-pyridin-3-yl-benzothiazol-2-yl]-3-ethyl-urea]
2 to 16 µg/mL (≈ 5.1 to 40.8 µM)	CCNC(=O)Nc1nc2cc(Br)cc(-c3ccc(N)nc3)c2s1 [Example 1, 1-[7-(6-Amino-pyridin-3-yl)-5-bromo-benzothiazol-2-yl]-3-ethyl-urea]

MIC	SMILES
0.25 to 1 µg/mL (≈ 0.64 to 2.56 µM)	CCNC(=O)Nc1nc2cc(-c3ccc(N)nc3)cc(-c3cccnc3)c2s1 [Example 17, 1-[5-(6-Amino-pyridin-3-yl)-7-pyridin-3-yl-benzothiazol-2-yl]-3-ethyl-urea]
2 to 16 µg/mL (≈ 5.12 to 41 µM)	CCNC(=O)Nc1nc2cc(-c3ccc(C)nn3)cc(-c3cccnc3)c2s1 [Example 46, 1-Ethyl-3-[5-(6-methyl-pyridazin-3-yl)-7-pyridin-3-yl-benzothiazol-2-yl]-urea]
< 0.25 µg/mL	CCNC(=O)Nc1nc2cc(-c3cccnc3)cc(-c3nc4ccccc4s3)c2s1 [Example 117, 1-Ethyl-3-(5′-pyridin-3-yl-[2,7′]bibenzothiazolyl-2′-yl)-urea]
2 to 16 µg/mL (≈ 3.5 to 28 µM)	CCNC(=O)Nc1nc2cc(-c3ccc(CN4CCOCC4)cc3)cc(-c3ccc(CN4CCOCC4)cc3)c2s1 [Example 146, 1-[5,7-Bis-(4-morpholin-4-ylmethyl-phenyl)-benzothiazol-2-yl]-3-ethyl-urea]
0.25 to 1 µg/mL (≈ 0.624 to 2.5 µM)	CCNC(=O)Nc1nc2cc(-c3cncc(C#N)c3)cc(-c3cccnc3)c2s1 [Example 24, 1-[5-(5-Cyano-pyridin-3-yl)-7-pyridin-3-yl-benzothiazol-2-yl]-3-ethyl-urea]
< 0.25 µg/mL	CCNC(=O)Nc1nc2cc(-c3cccnc3)cc(-c3cc(OC)ncn3)c2s1 [Example 122, 1-Ethyl-3-[7-(6-methoxy-pyrimidin-4-yl)-5-pyridin-3-yl-benzothiazol-2-yl]-urea]
2 to 16 µg/mL (≈ 4.08 to 32.7 µM)	CCNC(=O)Nc1nc2cc(-c3cncc(C(=O)NCCN(C)C)c3)cc(-c3ccccn3)c2s1 [Example 64, N-(2-Dimethylamino-ethyl)-5-[2-(3-ethyl-ureido)-7-pyridin-2-yl-benzothiazol-5-yl]-nicotinamide]
2 to 16 µg/mL (≈ 5.31 to 42.5 µM)	CCNC(=O)Nc1nc2cc(-c3cccnc3)cc(-c3cccnn3)c2s1 [Example 160, 1-Ethyl-3-(7-pyridazin-3-yl-5-pyridin-3-yl-benzothiazol-2-yl)-urea]
< 0.25 µg/mL	CCNC(=O)Nc1nc2cc(-c3cncc(N)n3)cc(-c3ccccn3)c2s1 [Example 53, 1-[5-(6-Amino-pyrazin-2-yl)-7-pyridin-2-yl-benzothiazol-2-yl]-3-ethyl-urea]
0.25 to 1 µg/mL (≈ 0.61 to 2.44 µM)	CCNC(=O)Nc1nc2cc(-c3cccnc3)cc(-c3sc(C)nc3C)c2s1 [Example 102, 1-[7-(2,4-Dimethyl-thiazol-5-yl)-5-pyridin-3-yl-benzothiazol-2-yl]-3-ethyl-urea]
< 0.25 µg/mL	CCNC(=O)Nc1nc2cc(-c3cnc(N)nc3)cc(-c3cnccn3)c2s1 [Example 139, 1-[5-(2-Amino-pyrimidin-5-yl)-7-pyrazin-2-yl-benzothiazol-2-yl]-3-ethyl-urea]
0.25 to 1 µg/mL (≈ 0.577 to 2.31 µM)	CCNC(=O)Nc1nc2cc(-c3ccc(CO)cc3)cc(-c3ccc(CO)cc3)c2s1 [Example 144, 1-[5,7-Bis-(4-hydroxymethyl-phenyl)-benzothiazol-2-yl]-3-ethyl-urea]
0.25 to 1 µg/mL (≈ 0.655 to 2.62 µM)	CCNC(=O)Nc1nc2cc(-c3cnn(C)c3)cc(-c3cnn(C)c3)c2s1 [Example 7, 1-[5,7-Bis-(1-methyl-1H-pyrazol-4-yl)-benzothiazol-2-yl]-3-ethyl-urea]
2 to 16 µg/mL (≈ 4.94 to 39.6 µM)	CCNC(=O)Nc1nc2cc(-c3ccc(CO)cc3)cc(-c3cccnc3)c2s1 [Example 18, 1-Ethyl-3-[5-(4-hydroxymethyl-phenyl)-7-pyridin-3-yl-benzothiazol-2-yl]-urea]
0.25 to 1 µg/mL (≈ 0.666 to 2.66 µM)	CCNC(=O)Nc1nc2cc(-c3ccncc3)cc(-c3cccnc3)c2s1 [Example 30, 1-Ethyl-3-(5-pyridin-4-yl-7-pyridin-3-yl-benzothiazol-2-yl)-urea]
< 0.25 µg/mL	CCNC(=O)Nc1nc2cc(-c3cccnc3)cc(-c3cccc(CO)n3)c2s1 [Example 104, 1-Ethyl-3-[7-(6-hydroxymethyl-pyridin-2-yl)-5-pyridin-3-yl-benzothiazol-2-yl]-urea]
0.25 to 1 µg/mL (≈ 0.657 to 2.63 µM)	CCNC(=O)Nc1nc2cc(-c3cnn(C)c3)cc(Br)c2s1 [Example 6, 1-[7-Bromo-5-(1-methyl-1H-pyrazol-4-yl)-benzothiazol-2-yl]-3-ethyl-urea]
< 0.25 µg/mL	CCNC(=O)Nc1nc2cc(-c3ccc(NC(C)=O)nc3)cc(-c3ccccn3)c2s1 [Example 133, N-{5-[2-(3-Ethyl-ureido)-7-pyridin-2-yl-benzothiazol-5-yl]-pyridin-2-yl}-acetamide]
< 0.25 µg/mL	CCNC(=O)Nc1nc2cc(-c3cccnc3)cc(-c3ncccc3Cl)c2s1 [Example 126, 1-[7-(3-Chloro-pyridin-2-yl)-5-pyridin-3-yl-benzothiazol-2-yl]-3-ethyl-urea]
0.25 to 1 µg/mL (≈ 0.617 to 2.47 µM)	CCNC(=O)Nc1nc2cc(-c3ccc(OC)nc3)cc(-c3cccnc3)c2s1 [Example 29, 1-Ethyl-3-[5-(6-methoxy-pyridin-3-yl)-7-pyridin-3-yl-benzothiazol-2-yl]-urea]
